# Data reported in PubChem BioAssay (NCI).
#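 Values below derive from 48-hour exposures of cells grown in 96-well plates, with endpoints linearly interpolated between the two concentrations bracketing the appropriate inhibition level. GI50 is the concentration that inhibits growth by half. TGI: concentration producing complete growth inhibition.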
# What was measured:
# Test in all cases: NCI anticancer screen, dose series, 48 h
# NCI-H226 lung = test system: NCI-H226 lung
# NCI-H23 lung = test system: NCI-H23 lung
# NCI-H460 lung = test system: NCI-H460 lung
# NCI-H522 lung = test system: NCI-H522 lung
# NCI/ADR-RES ovarian = test system: NCI/ADR-RES ovarian
# OVCAR-3 ovarian = test system: OVCAR-3 ovarian
# OVCAR-4 ovarian = test system: OVCAR-4 ovarian
# OVCAR-5 ovarian = test system: OVCAR-5 ovarian
# OVCAR-8 ovarian = test system: OVCAR-8 ovarian
# PC-3 prostate = test system: PC-3 prostate
# RPMI-8226 leukemia = test system: RPMI-8226 leukemia
# SF-268 CNS = test system: SF-268 CNS
# SF-295 CNS = test system: SF-295 CNS
# SF-539 CNS = test system: SF-539 CNS
# SK-MEL-2 melanoma = test system: SK-MEL-2 melanoma
# SK-MEL-28 melanoma = test system: SK-MEL-28 melanoma
# SK-MEL-5 melanoma = test system: SK-MEL-5 melanoma
# SK-OV-3 ovarian = test system: SK-OV-3 ovarian
# SN12C renal = test system: SN12C renal
# SNB-19 CNS = test system: SNB-19 CNS
# SNB-75 CNS = test system: SNB-75 CNS
# SW-620 colon = test system: SW-620 colon
# T-47D breast = test system: T-47D breast
# TK-10 renal = test system: TK-10 renal
# U251 CNS = test system: U251 CNS
# UACC-257 melanoma = test system: UACC-257 melanoma
# UACC-62 melanoma = test system: UACC-62 melanoma
# UO-31 renal = test system: UO-31 renal
smiles,measurement,setting,value
C[C@]12CC[C@H]3[C@@H](CC=C4C[C@@H](O)CC[C@@]43C)[C@@H]1C/C(=C\c1cccc(OCCN3CCOCC3)c1)[C@@H]2O,GI50,NCI-H226 lung,> 100 µM
same,TGI,NCI-H226 lung,> 100 µM
same,GI50,NCI-H23 lung,48.5 µM
same,TGI,NCI-H23 lung,> 100 µM
same,GI50,NCI-H460 lung,> 100 µM
same,TGI,NCI-H460 lung,> 100 µM
same,GI50,NCI-H522 lung,> 100 µM
same,TGI,NCI-H522 lung,> 100 µM
same,GI50,NCI/ADR-RES ovarian,74.1 µM
same,TGI,NCI/ADR-RES ovarian,> 100 µM
same,GI50,OVCAR-3 ovarian,> 100 µM
same,TGI,OVCAR-3 ovarian,> 100 µM
same,GI50,OVCAR-4 ovarian,> 100 µM
same,TGI,OVCAR-4 ovarian,> 100 µM
same,GI50,OVCAR-5 ovarian,> 100 µM
same,TGI,OVCAR-5 ovarian,> 100 µM
same,GI50,OVCAR-8 ovarian,> 100 µM
same,TGI,OVCAR-8 ovarian,> 100 µM
same,GI50,PC-3 prostate,27.4 µM
same,TGI,PC-3 prostate,> 100 µM
same,GI50,RPMI-8226 leukemia,7.83 µM
same,TGI,RPMI-8226 leukemia,> 100 µM
same,GI50,SF-268 CNS,70.9 µM
same,TGI,SF-268 CNS,> 100 µM
same,GI50,SF-295 CNS,89.4 µM
same,TGI,SF-295 CNS,> 100 µM
same,GI50,SF-539 CNS,> 100 µM
same,TGI,SF-539 CNS,> 100 µM
same,GI50,SK-MEL-2 melanoma,55.2 µM
same,TGI,SK-MEL-2 melanoma,> 100 µM
same,GI50,SK-MEL-28 melanoma,22.4 µM
same,TGI,SK-MEL-28 melanoma,56.4 µM
same,GI50,SK-MEL-5 melanoma,4.98 µM
same,TGI,SK-MEL-5 melanoma,23.3 µM
same,GI50,SK-OV-3 ovarian,> 100 µM
same,TGI,SK-OV-3 ovarian,> 100 µM
same,GI50,SN12C renal,> 100 µM
same,TGI,SN12C renal,> 100 µM
same,GI50,SNB-19 CNS,> 100 µM
same,TGI,SNB-19 CNS,> 100 µM
same,GI50,SNB-75 CNS,> 100 µM
same,TGI,SNB-75 CNS,> 100 µM
same,GI50,SW-620 colon,28.3 µM
same,TGI,SW-620 colon,> 100 µM
same,GI50,T-47D breast,6.46 µM
same,TGI,T-47D breast,> 100 µM
same,GI50,TK-10 renal,> 100 µM
same,TGI,TK-10 renal,> 100 µM
same,GI50,U251 CNS,> 100 µM
same,TGI,U251 CNS,> 100 µM
same,GI50,UACC-257 melanoma,16.6 µM
same,TGI,UACC-257 melanoma,84.3 µM
same,GI50,UACC-62 melanoma,> 100 µM
same,TGI,UACC-62 melanoma,> 100 µM
same,GI50,UO-31 renal,33.5 µM
same,TGI,UO-31 renal,> 100 µM
